{"source": "ChEMBL document CHEMBL1201862", "about": "“PubChem BioAssay data set” (2004)", "note": "Activity calls are given as the source filed them."}
{"biological_target": "T1, Replicative DNA helicase DnaB (Mycobacterium tuberculosis, UniProt P9WMR3)", "T1 sequence (P9WMR3 whole entry)": "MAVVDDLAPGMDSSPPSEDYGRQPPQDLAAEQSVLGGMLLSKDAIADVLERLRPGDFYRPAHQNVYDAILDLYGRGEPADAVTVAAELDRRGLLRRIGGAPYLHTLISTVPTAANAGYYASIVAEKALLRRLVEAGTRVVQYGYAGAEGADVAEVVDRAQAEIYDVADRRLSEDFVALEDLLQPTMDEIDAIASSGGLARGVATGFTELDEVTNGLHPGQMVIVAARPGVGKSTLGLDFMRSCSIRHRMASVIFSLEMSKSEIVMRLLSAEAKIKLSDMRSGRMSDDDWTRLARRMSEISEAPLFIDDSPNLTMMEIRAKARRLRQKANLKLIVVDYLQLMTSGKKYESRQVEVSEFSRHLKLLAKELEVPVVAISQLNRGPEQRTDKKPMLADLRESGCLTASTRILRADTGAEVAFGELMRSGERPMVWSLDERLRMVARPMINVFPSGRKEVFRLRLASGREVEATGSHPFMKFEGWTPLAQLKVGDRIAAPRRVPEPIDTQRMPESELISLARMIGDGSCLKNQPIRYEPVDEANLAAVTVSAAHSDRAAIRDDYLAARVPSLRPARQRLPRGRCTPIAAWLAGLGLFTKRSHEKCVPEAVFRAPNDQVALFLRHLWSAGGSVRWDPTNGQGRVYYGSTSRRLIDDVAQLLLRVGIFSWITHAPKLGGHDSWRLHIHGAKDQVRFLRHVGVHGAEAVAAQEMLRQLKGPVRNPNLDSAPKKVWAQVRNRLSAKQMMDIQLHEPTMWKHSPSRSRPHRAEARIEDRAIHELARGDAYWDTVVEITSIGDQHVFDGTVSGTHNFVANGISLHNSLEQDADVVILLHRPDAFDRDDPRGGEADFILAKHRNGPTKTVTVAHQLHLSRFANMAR", "assay": "DnaB intein splicing inhibitors, dose response, biochemical, cell-free fluorescence (AID 449749)", "format": "functional"}
{"compound": "CCCCCCCCCCOC(=O)Cn1c(COc2cccc(OC)c2)[n+](C)c2ccccc21", "AC50": "4320 nM (active)"}
{"compound": "CCc1ccc(S(=O)(=O)/N=C2\\C=C(Nc3cccc(C(=O)O)c3)C(=O)c3ccccc32)cc1", "AC50": "276 nM (active)"}
{"compound": "COc1cc2c(cc1OC)-c1c(OC)c(OC)cc3c1C(C2)N(C)CC3", "note": "(centres undefined)", "AC50": "550 nM (active)"}
{"biological_target": "T2, Apoptotic protease-activating factor 1 (Homo sapiens, UniProt O14727)", "T2 sequence (O14727 whole entry)": "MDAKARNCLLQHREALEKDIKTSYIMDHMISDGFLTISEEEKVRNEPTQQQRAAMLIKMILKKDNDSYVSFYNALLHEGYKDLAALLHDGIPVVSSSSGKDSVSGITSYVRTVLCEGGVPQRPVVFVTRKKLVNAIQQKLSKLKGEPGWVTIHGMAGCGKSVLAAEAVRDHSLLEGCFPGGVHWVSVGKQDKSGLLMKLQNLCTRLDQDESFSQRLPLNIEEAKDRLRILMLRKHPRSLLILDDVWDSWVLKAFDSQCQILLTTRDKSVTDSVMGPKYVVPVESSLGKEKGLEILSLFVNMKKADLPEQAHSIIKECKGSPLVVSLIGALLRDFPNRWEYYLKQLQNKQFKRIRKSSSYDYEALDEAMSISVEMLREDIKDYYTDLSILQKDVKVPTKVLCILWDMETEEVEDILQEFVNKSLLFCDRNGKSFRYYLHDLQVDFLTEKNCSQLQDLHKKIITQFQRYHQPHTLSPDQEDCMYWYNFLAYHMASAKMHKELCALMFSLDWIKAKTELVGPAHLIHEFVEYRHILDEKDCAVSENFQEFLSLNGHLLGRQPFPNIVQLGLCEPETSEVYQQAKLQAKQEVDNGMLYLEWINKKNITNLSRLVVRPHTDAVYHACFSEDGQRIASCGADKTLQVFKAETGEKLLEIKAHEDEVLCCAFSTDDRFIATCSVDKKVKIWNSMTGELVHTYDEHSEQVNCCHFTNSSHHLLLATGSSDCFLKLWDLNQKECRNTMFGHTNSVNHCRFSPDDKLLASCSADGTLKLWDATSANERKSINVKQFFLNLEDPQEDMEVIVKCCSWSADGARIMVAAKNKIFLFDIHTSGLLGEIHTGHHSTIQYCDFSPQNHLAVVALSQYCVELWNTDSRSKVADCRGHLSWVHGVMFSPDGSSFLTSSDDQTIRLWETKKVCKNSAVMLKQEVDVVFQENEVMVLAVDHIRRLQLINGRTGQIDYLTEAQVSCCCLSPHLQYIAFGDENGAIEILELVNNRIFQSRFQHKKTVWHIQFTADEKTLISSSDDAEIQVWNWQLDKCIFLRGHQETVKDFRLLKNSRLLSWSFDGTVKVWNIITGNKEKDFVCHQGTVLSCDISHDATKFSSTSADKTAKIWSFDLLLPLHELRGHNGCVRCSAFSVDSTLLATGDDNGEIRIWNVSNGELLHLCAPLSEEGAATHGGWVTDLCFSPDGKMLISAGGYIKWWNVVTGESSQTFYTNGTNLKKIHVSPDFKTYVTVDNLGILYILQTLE", "format": "functional"}
{"compound": "CCCCCCCCCCOC(=O)Cn1c(COc2cccc(OC)c2)[n+](C)c2ccccc21", "IC50": "10200 nM (active)"}
{"compound": "COc1cc(OC)c(NC2=CC(=O)C(=O)c3ccccc32)cc1Cl", "IC50": "2120 nM (active)"}
{"compound": "CCc1ccc(S(=O)(=O)/N=C2\\C=C(Nc3cccc(C(=O)O)c3)C(=O)c3ccccc32)cc1", "IC50": "7070 nM (active)"}
{"biological_target": "T3, Protein RecA (Mycobacterium tuberculosis, UniProt P9WHJ3)", "T3 sequence (P9WHJ3 whole entry)": "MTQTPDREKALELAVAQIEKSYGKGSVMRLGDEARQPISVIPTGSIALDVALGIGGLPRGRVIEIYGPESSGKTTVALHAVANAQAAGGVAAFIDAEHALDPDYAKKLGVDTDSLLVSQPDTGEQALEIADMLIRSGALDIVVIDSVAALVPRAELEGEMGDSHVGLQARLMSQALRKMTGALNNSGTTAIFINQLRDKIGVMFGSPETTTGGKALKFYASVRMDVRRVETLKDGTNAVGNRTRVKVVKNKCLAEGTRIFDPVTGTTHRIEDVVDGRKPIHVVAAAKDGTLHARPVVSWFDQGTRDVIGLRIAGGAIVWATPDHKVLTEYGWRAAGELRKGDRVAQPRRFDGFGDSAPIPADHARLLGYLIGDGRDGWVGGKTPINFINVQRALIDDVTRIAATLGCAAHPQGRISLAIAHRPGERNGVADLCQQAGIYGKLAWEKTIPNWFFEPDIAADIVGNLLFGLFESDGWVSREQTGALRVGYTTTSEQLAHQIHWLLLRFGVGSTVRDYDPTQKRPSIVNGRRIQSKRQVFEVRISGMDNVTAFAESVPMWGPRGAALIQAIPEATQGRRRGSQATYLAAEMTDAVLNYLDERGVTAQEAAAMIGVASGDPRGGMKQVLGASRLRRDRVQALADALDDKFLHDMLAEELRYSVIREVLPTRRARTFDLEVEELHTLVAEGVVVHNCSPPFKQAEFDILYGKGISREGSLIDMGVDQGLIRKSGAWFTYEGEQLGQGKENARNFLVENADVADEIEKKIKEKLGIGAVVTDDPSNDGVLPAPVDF", "assay": "Fluorescence Cell-Free Homogeneous Dose Retest to Identify Inhibitors of RecA-Intein Splicing Activity. [Related pubchem assays (depositor defined):AID2097, AID2223, AID489010, AID492950]", "format": "functional"}
{"compound": "CCCCCCCCCCOC(=O)Cn1c(COc2cccc(OC)c2)[n+](C)c2ccccc21", "EC50": "9700 nM (active)"}
{"compound": "CCc1ccc(S(=O)(=O)/N=C2\\C=C(Nc3cccc(C(=O)O)c3)C(=O)c3ccccc32)cc1", "EC50": "216 nM (active)"}
{"compound": "COc1cc2c(cc1OC)-c1c(OC)c(OC)cc3c1C(C2)N(C)CC3", "note": "(centres undefined)", "EC50": "614 nM (active)"}
